Publication PMC8041284, “Tunable Methacrylamides for Covalent Ligand Directed Release Chemistry” (Journal of the American Chemical Society, 2021)
Read-outs that look alike come from different tables or passages of the source. Where a SMILES comes first, the peptide text is derived from it.

Biological target: BTK (Homo sapiens, UniProt Q06187)
Experiment: biochemical
[1] = read-out: BTK inhibition (%), 0.75 uM BTK, […] probe 3l, 15 min preincubation

Chain of BTK (Q06187 402-655 limits assumed): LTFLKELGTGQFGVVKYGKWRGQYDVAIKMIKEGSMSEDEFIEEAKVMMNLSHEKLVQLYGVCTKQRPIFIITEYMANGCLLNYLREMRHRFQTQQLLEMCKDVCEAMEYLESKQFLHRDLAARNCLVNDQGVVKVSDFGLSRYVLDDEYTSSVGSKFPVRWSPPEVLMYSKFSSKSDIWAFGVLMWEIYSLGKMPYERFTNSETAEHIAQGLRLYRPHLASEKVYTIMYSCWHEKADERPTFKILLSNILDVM

Structure (SMILES) | inhibition at 10 µM [1] | inhibition at 10 µM (read-out: BTK inhibition (%))
COc1ccc2ccc(=O)oc2c1CC=C(C)C [PCM-0094564] | -70% | 
CC(=O)O [PCM-0215080] | -2.3% | 
C[C@H](NC(=O)c1c(N)nn2cccnc12)c1cc2cccc(C#Cc3cnn(C)c3)c2c(=O)n1-c1ccccc1 [PCM-0215846] | 20% | 
C=C(C)[C@@H]1CC[C@]2(C(=O)O)CC[C@]3(C)[C@H](CC[C@@H]4[C@@]5(C)CC[C@H](O)[C@@](C)(CO)[C@@H]5CC[C@]43C)[C@@H]12 [PCM-0216604] | 26.3% | 
CC(N)=NCc1cccc(CN)c1 [PCM-0215766] | 13.1% | 
O=C1CCc2cc(OCCCCc3nnnn3C3CCCCC3)ccc2N1 [PCM-0064629] | -19.5% | 
Nc1nc(Cl)nc2c1ncn2[C@H]1C[C@H](O)[C@@H](CO)O1 [PCM-0086228] | -16.6% | 
Cc1ccc(O)c(O)c1 [PCM-0216565] | 6.2% | 
CS(=O)(=O)c1cccc(CNc2nc(Nc3ccc4c(c3)CCC(=O)N4)ncc2C(F)(F)F)c1 [PCM-0064954] | 55.2% | 
CC(=O)CCc1ccccc1 [PCM-0216622] | -6.9% | 
CC(C)=CCC/C(C)=C/CC/C(C)=C/CC/C=C(\C)CC/C=C(\C)CCC=C(C)C [PCM-0216030] | -9.7% | 
CC1CCCCCCCCCCCCC(=O)C1 (centres unmarked) [PCM-0215929] | 0.7% | 
CNC[C@H](O)[C@@H](O)[C@H](O)[C@H](O)CO [PCM-0086373] | -10.1% | 
COc1ccc(-c2coc3cc(O[C@@H]4O[C@H](CO)[C@@H](O)[C@H](O)[C@H]4O)ccc3c2=O)cc1O [PCM-0216381] | -10% | 
COC(=O)[C@H](Cc1ccccc1)NC(=O)[C@@H](N)CC(=O)O [PCM-0214708] (H-Asp-Phe-OMe) | 6.2% | 
Cc1cc(NC(=O)c2cccc(NC(=O)/C=C/CN(C)C)c2)ccc1Nc1nccc(-c2cccnc2)n1 [PCM-0095741] | 9.7% | 
C[C@@H](NCCCc1cccc(C(F)(F)F)c1)c1cccc2ccccc12 [PCM-0095032] | 24.1% | 
COC(=O)C1=CO[C@@H](O[C@@H]2O[C@H](CO)[C@@H](O)[C@H](O)[C@H]2O)[C@@H]2[C@@H](C)CC(=O)[C@]12O [PCM-0216345] | -3.1% | 
OC(c1ccccc1)(c1ccccc1)C1CCNCC1 [PCM-0085781] |  | -14%
O=c1cc(-c2ccccc2)oc2cc(O)cc(O)c12 [PCM-0088446] | 34.2% | 
Cc1c(Cn2c(C)nc3c(C(=O)O)cc(N4CCOCC4)cc32)cccc1C(F)(F)F [PCM-0095596] | -22.1% | 
Nc1nc(-c2nn(Cc3ccccc3F)c3ncccc23)ncc1C1CC1 [PCM-0215570] | -5.4% | 
O=C(C[S+]([O-])Cc1ccco1)NC/C=C\COc1cc(CN2CCCCC2)ccn1 (centres unmarked) [PCM-0095231] | -9% | 
CCOC(=O)C=P(c1ccccc1)(c1ccccc1)c1ccccc1 [PCM-0216183] | -14.7% | 
O=C(c1ccc(F)cc1)C1CCN(CCn2c(=O)[nH]c3ccccc3c2=O)CC1 [PCM-0065006] | 0% | 
CC(C)=CCC/C(C)=C/CC/C(C)=C/CCC(=O)OC/C=C(\C)CCC=C(C)C [PCM-0216575] | 7.7% | 

Structure (SMILES) | inhibition at 10 µM [1] | inhibition at 10 µM (read-out: BTK inhibition (%))
COC(=O)N[C@H](C(=O)N1CCC[C@H]1c1ncc(-c2ccc3c(c2)O[C@@H](c2ccccc2)n2c-3cc3cc(-c4cnc([C@@H]5CCCN5C(=O)[C@@H](NC(=O)OC)C(C)C)[nH]4)ccc32)[nH]1)C(C)C [PCM-0216642] | 52.5% | 
O=C(NC(Cc1cc(=O)[nH]c2ccccc12)C(=O)O)c1ccc(Cl)cc1 (centres unmarked) [PCM-0086359] | 4.7% | 
CO[C@@H]1[C@@H](OC(N)=O)[C@@H](O)[C@H](Oc2ccc3c(O)c(NC(=O)c4ccc(O)c(CC=C(C)C)c4)c(=O)oc3c2C)OC1(C)C [PCM-0086469] | 7% | 
CN[C@H]1CN(c2ccc3c(=O)c(C(=O)O)cn(-c4nccs4)c3n2)C[C@@H]1OC [PCM-0215713] | -17% | 
c1ccc([C@H]2CN3CCSC3=N2)cc1 [PCM-0065508] | 17.9% | 
CSC[C@H](N)C(=O)O [PCM-0215958] | 2.6% | 
Cc1nc(-c2cccnc2)sc1C(=O)Nc1ccccc1-c1cn2c(CN3CCOCC3)csc2n1 [PCM-0215454] | 12.4% | 
O=P(O)(O)C(O)(Cc1cccnc1)P(=O)(O)O [PCM-0090360] | -3.4% | 
CC#CCn1c(N2CCC[C@@H](N)C2)nc2c1c(=O)n(Cc1nc(C)c3ccccc3n1)c(=O)n2C [PCM-0090431] | -3.1% | 
Cc1c(CN2CCN(C(=O)[C@H](C)O)CC2)sc2c(N3CCOCC3)nc(-c3cnc(N)nc3)nc12 [PCM-0095406] | 75.2% | 
CCn1c(=O)c(-c2ccc(Cl)cc2Cl)cc2cnc(Nc3ccc(N4CCNCC4)c(F)c3)nc21 [PCM-0215684] | 87.6% | 
CC(C)n1c(/C=C/[C@H](O)C[C@H](O)CC(=O)O)c(-c2ccc(F)cc2)c2ccccc21 [PCM-0090402] | 15.9% | 
CC(=O)Oc1ccccc1C(=O)Nc1ncc([N+](=O)[O-])s1 [PCM-0090347] | 17.9% | 
CC[C@@H](C)Nc1cc(C(=O)NC2C[C@H]3CC[C@@H](C2)N3c2ccc(C(=O)C3CC3)cn2)c(C)cc1C(N)=O (some centres unmarked) [PCM-0215196] | -0.8% | 
COc1nc(N)nc2c1ncn2[C@@H]1O[C@H](CO)[C@@H](O)[C@@H]1O [PCM-0094930] | -3.1% | 
CN(C)C(=N)N=C(N)N [PCM-0085761] | 21.8% | 
Cc1ccc2c(c1)c1c(n2CCc2ccc(C)nc2)CCN(C)C1 [PCM-0095683] | 6.2% | 
O=C(NCc1ccc(Oc2ccccc2)cc1)c1nc(-c2cc(Br)c(O)c(Br)c2)no1 [PCM-0215261] | 94.2% | 
COc1cc(-c2oc3cc(O)cc(O)c3c(=O)c2O)ccc1O [PCM-0216402] | 73.4% | 
C/C(=C\CO)CCC[C@H](C)CCC[C@H](C)CCCC(C)C [PCM-0215913] | 3.9% | 
OC1CCC(Oc2cccc3cnc(Nc4ccc5nc[nH]c5c4)nc23)CC1 (centres unmarked) [PCM-0215798] | 66.2% | 
CC[C@@H](CO)NCCN[C@@H](CC)CO [PCM-0090100] | 29.6% | 
CC(=O)c1ccc(C)cc1O [PCM-0215921] | -6.9% | 
C/C=C(/C)C(=O)OC(C)(C)[C@@H]1Cc2c(ccc3ccc(=O)oc23)O1 [PCM-0216607] | -23.9% | 
COc1cc(C(=O)N(CCCc2ccccc2)Cc2ccc(CC(=O)O)cc2)cc(OC)c1C [PCM-0215725] | 16.2% | 
NC(N)=NC(N)=NCCc1ccccc1 [PCM-0085798] | 4.1% | 

Structure (SMILES) | inhibition at 10 µM [1] | inhibition at 10 µM (read-out: BTK inhibition (%))
COc1c2occc2cc2ccc(=O)oc12 [PCM-0087924] | -19.5% | 
C[C@H]1O[C@@H](O[C@H]2CC[C@@]3(C)[C@@H](CC[C@]4(C)[C@@H]3C=CC3=C5CC(C)(C)CC[C@]5(CO)[C@H](O)C[C@]34C)[C@]2(C)CO)[C@H](O)[C@@H](O[C@@H]2O[C@H](CO)[C@@H](O)[C@H](O)[C@H]2O)[C@H]1O [PCM-0216536] | 5.4% | 
Nc1nc(-c2ccco2)c2cnn(Cc3ccccc3F)c2n1 [PCM-0215878] | 5.4% | 
O=C(O)Cc1ccc2c(c1)C(=O)c1ccccc1CO2 [PCM-0216047] | -5.5% | 
OC[C@H]1OC(O)[C@H](O)[C@@H](O)[C@H]1O (some centres unmarked) [PCM-0215038] | -23.3% | 
CC(C)n1c([C@H](C)Nc2ncnc(N)c2C#N)cc2cccc(-c3ccc(=O)n(C)c3)c2c1=O [PCM-0215961] | -11.6% | 
O=C1Cc2ccccc2N1 [PCM-0215133] | 1.6% | 
C=C[C@@H]1C[C@]1(NC(=O)[C@@H]1C[C@@H](Oc2ncc(OC)c3ccc(Cl)cc23)CN1C(=O)[C@@H](NC(=O)OC(C)(C)C)C(C)(C)C)C(=O)NS(=O)(=O)C1CC1 [PCM-0215095] | -4.7% | 
CC(C)=CCC[C@](C)(O)[C@H]1CC[C@]2(C)[C@@H]1[C@H](O)C[C@@H]1[C@@]3(C)CC[C@H](O)C(C)(C)[C@@H]3CC[C@]12C [PCM-0214857] | 21% | 
C[C@@H](c1ccc2nccn2c1)n1nnc2ncc(-c3cnn(C)c3)nc21 [PCM-0215934] | -9.3% | 
C[N+](C)(C)C[C@H](O)CC(=O)[O-] [PCM-0090364] | 10.1% | 
CCCCN(Cc1ccc(C(=O)NO)cc1)C(=O)Nc1ccccc1 [PCM-0215294] | 23.9% | 
CCOC(=O)c1ccc(C#Cc2ccc3c(c2)C(C)(C)CCS3)nc1 [PCM-0095130] | -16.6% | 
O=C(O)CC(O)(CC(=O)OCc1ccc(O[C@@H]2O[C@H](CO)[C@@H](O)[C@H](O)[C@H]2O)cc1)C(=O)OCc1ccc(O[C@@H]2O[C@H](CO)[C@@H](O)[C@H](O)[C@H]2O)cc1 (some centres unmarked) [PCM-0216319] | -28.6% | 
O=C(NCCO[N+](=O)[O-])c1cccnc1 [PCM-0085806] | -5.4% | 
COc1cc(C[C@H](C)[C@H](C)Cc2ccc3c(c2)OCO3)ccc1O [PCM-0216424] | 68.7% | 
CNC(=O)c1ccc(-c2cnc3ncc(Cc4ccc5ncccc5c4)n3n2)cc1F [PCM-0095370] | -24.7% | 
CC(C)C[C@H](CC(=O)NO)C(=O)N[C@@H](Cc1ccc2ccccc2c1)C(=O)N[C@@H](C)C(=O)NCCN [PCM-0215328] | 18.6% | 
CC12CCC(C1)C(C)(C)C2O (centres unmarked) [PCM-0216150] | -13.9% | 
CC1=C(C(=O)OCCN(Cc2ccccc2)c2ccccc2)C(c2cccc([N+](=O)[O-])c2)C(P2(=O)OCC(C)(C)CO2)=C(C)N1 (centres unmarked) [PCM-0215151] | 7.8% | 
CC(C)C[C@H](NC(=O)CNC(=O)[C@H](Cc1ccc(O)cc1)NC(=O)[C@H](CO)NC(=O)[C@H](Cc1c[nH]c2ccccc12)NC(=O)[C@H](Cc1cnc[nH]1)NC(=O)[C@@H]1CCC(=O)N1)C(=O)N[C@@H](CCCN=C(N)N)C(=O)N1CCC[C@H]1C(=O)NCC(N)=O [PCM-0216273] | -5.1% | 
COc1cc(/C=C/c2ccc(O)c(O)c2)cc(OC)c1 [PCM-0214943] | 36.6% | 
COc1ccc(OC)c(C2C(C#N)=C(N)Oc3n[nH]c(-c4ccc5ccccc5c4)c32)c1 (centres unmarked) [PCM-0215398] | 1.5% | 
Clc1cccc(Cl)c1NC1=NCCN1 [PCM-0064514] | -19.5% | 
C/C=C(/C)C(=O)O [PCM-0215002] | 14.5% | 
